Measured values published in ChEMBL document CHEMBL4477252, “Optimization of microtubule affinity regulating kinase (MARK) inhibitors with improved physical properties” (Bioorg Med Chem Lett, 2016).

Assays:
[1] = Volume of distribution in Sprague-Dawley rat at 1 mL/kg, iv administered through catheter or 5 mL/kg administered through gastric gavage measured after 24 hrs by LC-MS/MS analysis; assay type: ADME, organism-based; conditions: in vivo
[2] = target: Cyclin-dependent kinase 2 (Homo sapiens, UniProt P24941); experiment: Inhibition of full-length recombinant human His-tagged CDK2 expressed in baculovirus expression system by Z'-LYTE assay
[3] = target: Death-associated protein kinase 1 (Homo sapiens, UniProt P53355); experiment: Inhibition of recombinant human GST-tagged DAPK1 catalytic domain expressed in baculovirus expression system by Adapta assay
Death-associated protein kinase 1, sequence (P53355 whole entry, the tested form may be a part): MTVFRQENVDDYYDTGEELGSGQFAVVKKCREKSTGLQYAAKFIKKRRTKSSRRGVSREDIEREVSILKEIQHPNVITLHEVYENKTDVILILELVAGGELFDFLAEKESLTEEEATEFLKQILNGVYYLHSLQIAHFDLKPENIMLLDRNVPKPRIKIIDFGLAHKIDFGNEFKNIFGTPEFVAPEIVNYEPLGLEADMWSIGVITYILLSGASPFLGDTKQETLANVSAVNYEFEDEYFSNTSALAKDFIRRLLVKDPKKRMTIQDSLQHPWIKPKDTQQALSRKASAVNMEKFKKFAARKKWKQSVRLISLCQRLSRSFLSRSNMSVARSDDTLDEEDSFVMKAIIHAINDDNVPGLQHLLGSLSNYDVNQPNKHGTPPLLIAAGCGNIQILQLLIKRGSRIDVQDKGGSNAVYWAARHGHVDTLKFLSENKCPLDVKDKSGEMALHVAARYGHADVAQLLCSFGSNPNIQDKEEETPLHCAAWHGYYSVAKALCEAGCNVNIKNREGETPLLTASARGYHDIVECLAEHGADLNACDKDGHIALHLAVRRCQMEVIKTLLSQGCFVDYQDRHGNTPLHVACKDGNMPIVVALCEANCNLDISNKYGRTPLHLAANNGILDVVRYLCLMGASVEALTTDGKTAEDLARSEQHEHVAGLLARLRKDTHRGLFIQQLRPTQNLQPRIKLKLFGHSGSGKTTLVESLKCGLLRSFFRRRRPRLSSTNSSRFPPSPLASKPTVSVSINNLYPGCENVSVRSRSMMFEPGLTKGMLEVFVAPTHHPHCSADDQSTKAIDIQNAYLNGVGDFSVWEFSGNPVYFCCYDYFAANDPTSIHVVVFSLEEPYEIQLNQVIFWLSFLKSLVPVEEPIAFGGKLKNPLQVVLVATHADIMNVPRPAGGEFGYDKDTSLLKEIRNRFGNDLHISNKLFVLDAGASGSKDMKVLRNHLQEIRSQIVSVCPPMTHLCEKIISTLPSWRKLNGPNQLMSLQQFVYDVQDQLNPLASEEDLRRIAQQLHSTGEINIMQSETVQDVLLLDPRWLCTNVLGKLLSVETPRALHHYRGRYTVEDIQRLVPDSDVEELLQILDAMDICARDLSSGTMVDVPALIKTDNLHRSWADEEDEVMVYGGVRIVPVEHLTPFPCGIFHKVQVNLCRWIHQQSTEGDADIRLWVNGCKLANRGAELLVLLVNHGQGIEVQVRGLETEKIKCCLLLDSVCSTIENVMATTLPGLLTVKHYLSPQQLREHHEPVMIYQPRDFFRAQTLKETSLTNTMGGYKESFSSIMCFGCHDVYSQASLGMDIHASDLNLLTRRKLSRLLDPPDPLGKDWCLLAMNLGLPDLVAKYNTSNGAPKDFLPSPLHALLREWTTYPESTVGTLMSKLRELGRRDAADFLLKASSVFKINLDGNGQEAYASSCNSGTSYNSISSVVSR

[4] = target: Insulin-like growth factor 1 receptor (Homo sapiens, UniProt P08069); experiment: Inhibition of recombinant human C-terminal His-tagged cytoplasmic IGF1R (960 to 1397 residues) expressed in baculovirus expression system by Z'-LYTE assay
Insulin-like growth factor 1 receptor, sequence (P08069 31-736 limits assumed): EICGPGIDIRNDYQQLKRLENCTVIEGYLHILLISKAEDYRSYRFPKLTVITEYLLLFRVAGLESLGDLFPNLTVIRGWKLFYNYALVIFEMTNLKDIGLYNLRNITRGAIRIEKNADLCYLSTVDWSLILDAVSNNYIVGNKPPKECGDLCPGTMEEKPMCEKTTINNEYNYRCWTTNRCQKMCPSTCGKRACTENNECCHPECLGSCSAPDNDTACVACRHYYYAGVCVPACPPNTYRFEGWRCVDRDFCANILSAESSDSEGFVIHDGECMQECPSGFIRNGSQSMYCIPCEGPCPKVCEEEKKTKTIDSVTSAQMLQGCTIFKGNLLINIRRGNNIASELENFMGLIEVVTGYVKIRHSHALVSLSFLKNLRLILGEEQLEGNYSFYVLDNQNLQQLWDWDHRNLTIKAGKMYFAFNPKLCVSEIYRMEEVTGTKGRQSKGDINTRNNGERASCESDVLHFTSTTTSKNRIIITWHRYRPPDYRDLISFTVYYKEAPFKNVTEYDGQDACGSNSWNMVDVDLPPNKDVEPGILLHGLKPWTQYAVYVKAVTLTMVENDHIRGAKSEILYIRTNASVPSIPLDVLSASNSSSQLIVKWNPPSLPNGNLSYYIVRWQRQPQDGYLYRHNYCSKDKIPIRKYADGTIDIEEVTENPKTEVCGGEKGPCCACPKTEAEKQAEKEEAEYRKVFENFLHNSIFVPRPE
Insulin-like growth factor 1 receptor, sequence (P08069 741-1367 limits assumed): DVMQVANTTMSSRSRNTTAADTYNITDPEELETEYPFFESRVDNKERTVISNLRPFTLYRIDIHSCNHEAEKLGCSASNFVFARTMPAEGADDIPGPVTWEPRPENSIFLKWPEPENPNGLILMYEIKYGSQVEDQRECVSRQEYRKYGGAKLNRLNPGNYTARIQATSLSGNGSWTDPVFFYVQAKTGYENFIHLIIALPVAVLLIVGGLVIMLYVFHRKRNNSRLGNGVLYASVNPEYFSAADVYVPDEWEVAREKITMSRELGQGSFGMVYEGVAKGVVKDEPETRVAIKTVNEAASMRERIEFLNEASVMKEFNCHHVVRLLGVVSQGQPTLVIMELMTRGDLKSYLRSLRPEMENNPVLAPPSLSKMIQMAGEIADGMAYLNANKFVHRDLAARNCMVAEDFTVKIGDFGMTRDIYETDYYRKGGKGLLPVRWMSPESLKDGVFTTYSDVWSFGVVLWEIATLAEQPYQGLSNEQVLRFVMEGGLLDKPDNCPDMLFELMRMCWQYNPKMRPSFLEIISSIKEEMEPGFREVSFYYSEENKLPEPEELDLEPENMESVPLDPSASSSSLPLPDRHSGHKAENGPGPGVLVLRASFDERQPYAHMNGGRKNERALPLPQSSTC

[5] = target: T1, Inhibitor of nuclear factor kappa-B kinase subunit epsilon (Homo sapiens, UniProt Q14164); experiment: Inhibition of full-length recombinant human GST-tagged IKK-epsilon expressed in baculovirus expression system by Z'-LYTE assay
T1 sequence (Q14164 whole entry): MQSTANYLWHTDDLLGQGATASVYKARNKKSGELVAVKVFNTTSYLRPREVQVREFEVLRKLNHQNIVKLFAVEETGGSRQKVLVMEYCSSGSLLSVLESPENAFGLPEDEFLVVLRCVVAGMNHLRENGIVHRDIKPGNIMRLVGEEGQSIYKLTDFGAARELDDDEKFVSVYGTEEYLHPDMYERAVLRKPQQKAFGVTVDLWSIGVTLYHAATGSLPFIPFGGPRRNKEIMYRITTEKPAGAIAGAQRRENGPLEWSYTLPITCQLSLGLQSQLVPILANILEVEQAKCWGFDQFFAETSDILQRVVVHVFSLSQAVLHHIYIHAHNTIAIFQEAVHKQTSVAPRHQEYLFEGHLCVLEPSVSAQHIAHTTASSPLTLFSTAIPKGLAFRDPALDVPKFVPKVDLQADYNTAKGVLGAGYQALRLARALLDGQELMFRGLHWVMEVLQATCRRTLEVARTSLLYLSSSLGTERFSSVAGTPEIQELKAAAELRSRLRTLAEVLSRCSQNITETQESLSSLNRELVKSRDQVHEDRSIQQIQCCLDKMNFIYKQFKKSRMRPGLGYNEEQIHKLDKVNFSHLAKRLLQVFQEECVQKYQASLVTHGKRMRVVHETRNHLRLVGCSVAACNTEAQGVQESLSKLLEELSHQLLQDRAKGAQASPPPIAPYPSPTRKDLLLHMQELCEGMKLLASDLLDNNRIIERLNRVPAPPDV

[6] = target: Tyrosine-protein kinase Lck (Homo sapiens, UniProt P06239); experiment: Inhibition of full-length recombinant human His-tagged LCK expressed in baculovirus expression system by Z'-LYTE assay
Tyrosine-protein kinase Lck, sequence (P06239 whole entry): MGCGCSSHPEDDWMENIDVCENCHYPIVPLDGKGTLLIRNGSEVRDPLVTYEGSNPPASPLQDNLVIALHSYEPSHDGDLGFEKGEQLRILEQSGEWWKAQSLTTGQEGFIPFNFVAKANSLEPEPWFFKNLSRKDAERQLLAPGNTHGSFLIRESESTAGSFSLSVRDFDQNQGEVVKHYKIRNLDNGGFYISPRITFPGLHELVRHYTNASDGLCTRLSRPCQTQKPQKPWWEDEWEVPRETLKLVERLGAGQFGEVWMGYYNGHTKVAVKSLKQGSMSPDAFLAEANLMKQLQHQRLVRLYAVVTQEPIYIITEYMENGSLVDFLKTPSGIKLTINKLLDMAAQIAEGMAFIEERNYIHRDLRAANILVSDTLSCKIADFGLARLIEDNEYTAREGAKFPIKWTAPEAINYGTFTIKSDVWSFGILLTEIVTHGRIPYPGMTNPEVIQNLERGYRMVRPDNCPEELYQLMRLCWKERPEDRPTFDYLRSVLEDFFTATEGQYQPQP

[7] = target: Serine/threonine-protein kinase Nek6 (Homo sapiens, UniProt Q9HC98); experiment: Inhibition of full-length recombinant human GST-tagged NEK6 expressed in insect cells by Z'-LYTE assay
Serine/threonine-protein kinase Nek6, sequence (Q9HC98 whole entry, the tested form may be a part): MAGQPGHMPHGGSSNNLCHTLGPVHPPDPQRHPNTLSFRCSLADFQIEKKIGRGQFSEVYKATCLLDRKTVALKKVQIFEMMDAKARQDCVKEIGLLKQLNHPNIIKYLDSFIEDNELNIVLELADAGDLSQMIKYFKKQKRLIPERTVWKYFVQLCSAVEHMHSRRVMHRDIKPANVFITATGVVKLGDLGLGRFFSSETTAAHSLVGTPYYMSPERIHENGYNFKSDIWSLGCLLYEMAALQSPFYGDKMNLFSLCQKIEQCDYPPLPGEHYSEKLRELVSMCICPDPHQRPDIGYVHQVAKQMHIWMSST

[8] = target: T2, Serine/threonine-protein kinase Sgk1 (Homo sapiens, UniProt O00141); experiment: Inhibition of recombinant human GST-tagged SGK catalytic domain expressed in baculovirus expression system by Z'-LYTE assay
T2 sequence (O00141 whole entry): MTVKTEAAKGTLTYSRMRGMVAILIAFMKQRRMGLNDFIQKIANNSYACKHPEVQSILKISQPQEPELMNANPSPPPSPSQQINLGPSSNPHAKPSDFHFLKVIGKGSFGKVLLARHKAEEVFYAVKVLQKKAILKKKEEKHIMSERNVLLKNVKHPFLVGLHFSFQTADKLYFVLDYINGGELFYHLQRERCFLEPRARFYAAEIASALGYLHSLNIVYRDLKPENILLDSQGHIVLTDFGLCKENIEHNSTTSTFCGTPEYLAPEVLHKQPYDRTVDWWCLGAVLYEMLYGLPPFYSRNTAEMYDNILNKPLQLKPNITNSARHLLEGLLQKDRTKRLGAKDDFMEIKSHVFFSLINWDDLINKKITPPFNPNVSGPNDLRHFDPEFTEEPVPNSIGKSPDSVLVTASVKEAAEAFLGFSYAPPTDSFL

[9] = target: Proto-oncogene tyrosine-protein kinase Src (Homo sapiens, UniProt P12931); experiment: Inhibition of full-length recombinant human His-tagged SRC expressed in baculovirus expression system by Adapta assay
Proto-oncogene tyrosine-protein kinase Src, sequence (P12931 2-536 limits assumed): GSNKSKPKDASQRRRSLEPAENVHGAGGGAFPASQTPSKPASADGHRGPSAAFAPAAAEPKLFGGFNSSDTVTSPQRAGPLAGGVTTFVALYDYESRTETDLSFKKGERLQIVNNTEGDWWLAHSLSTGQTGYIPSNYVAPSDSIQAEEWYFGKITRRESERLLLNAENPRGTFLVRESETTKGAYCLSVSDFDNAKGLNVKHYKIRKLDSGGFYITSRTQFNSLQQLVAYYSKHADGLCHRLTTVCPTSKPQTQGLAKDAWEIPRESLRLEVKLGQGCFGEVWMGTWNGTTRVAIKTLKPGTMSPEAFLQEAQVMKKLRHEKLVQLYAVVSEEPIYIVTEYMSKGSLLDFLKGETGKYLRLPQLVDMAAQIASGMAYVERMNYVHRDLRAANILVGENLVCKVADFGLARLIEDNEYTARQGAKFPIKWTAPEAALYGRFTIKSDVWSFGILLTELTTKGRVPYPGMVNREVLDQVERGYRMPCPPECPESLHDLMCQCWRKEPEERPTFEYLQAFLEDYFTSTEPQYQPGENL

[10] = target: T3, Testis-specific serine/threonine-protein kinase 1 (Homo sapiens, UniProt Q9BXA7); experiment: Inhibition of full-length recombinant human His-tagged STK22D expressed in baculovirus expression system by Z'-LYTE assay
T3 sequence (Q9BXA7 whole entry): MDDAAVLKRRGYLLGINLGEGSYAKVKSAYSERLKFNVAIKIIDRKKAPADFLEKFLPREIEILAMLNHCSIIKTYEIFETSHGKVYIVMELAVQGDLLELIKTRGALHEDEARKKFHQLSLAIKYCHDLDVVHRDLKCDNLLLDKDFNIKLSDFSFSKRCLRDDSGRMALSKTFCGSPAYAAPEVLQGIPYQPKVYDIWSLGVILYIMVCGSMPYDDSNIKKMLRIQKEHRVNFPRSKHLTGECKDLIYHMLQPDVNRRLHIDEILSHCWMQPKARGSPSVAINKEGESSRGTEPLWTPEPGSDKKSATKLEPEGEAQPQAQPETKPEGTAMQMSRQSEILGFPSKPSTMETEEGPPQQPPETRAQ

[11] = Clearance in Sprague-Dawley rat at 1 mL/kg, iv administered through catheter measured after 24 hrs by LC-MS/MS analysis; assay type: ADME, organism-based; conditions: in vivo

Compound: Cn1cc(-c2cnc3c(-c4csc(C(=O)N[C@@H]5CCCC[C@@H]5N)c4)cnn3c2)cn1 (racemic)
- Vd [1]: 29 L/kg
- IC50 [2]: 2.2 nM
- IC50 [3]: 1.9 nM
- IC50 [4]: 2.8 µM
- IC50 [5]: 7.1 nM
- IC50 [6]: 3.9 nM
- IC50 [7]: 2.6 µM
- IC50 [8]: 200 nM
- IC50 [9]: 3 nM
- IC50 [10]: < 1 nM

Compound: Cn1cc(-c2cnc3c(-c4csc(C(=O)NCC(F)(F)F)c4)cnn3c2)cn1
- clearance [11]: 7.4 mL/min/kg
- Vd [1]: 0.77 L/kg
- IC50 [2]: < 10 nM
- IC50 [3]: < 10 nM
- IC50 [4]: > 100 µM
- IC50 [5]: < 10 nM
- IC50 [6]: 37 nM
- IC50 [7]: 5.9 µM
- IC50 [8]: 63 nM
- IC50 [9]: 42 nM
- IC50 [10]: 20 nM

Compound: Cc1sc(C(=O)N[C@@H]2[C@H](N)CCCC2(F)F)cc1-c1cnn2cc(Cl)cnc12
- clearance [11]: 19 mL/min/kg
- Vd [1]: 1.3 L/kg
- IC50 [2]: 51 nM
- IC50 [3]: 26 nM
- IC50 [4]: > 100 µM
- IC50 [5]: 48 nM
- IC50 [6]: 5000 nM
- IC50 [7]: 17 µM
- IC50 [8]: 810 nM
- IC50 [9]: 8100 nM
- IC50 [10]: < 10 nM

Compound: O=C(NCC(F)(F)F)c1cc(-c2cnn3cc(-c4ccc(OCCN5CCCCC5)cc4)cnc23)cs1
- clearance [11]: 32 mL/min/kg
- Vd [1]: 14.2 L/kg
- IC50 [2]: 12 nM
- IC50 [3]: < 10 nM
- IC50 [4]: > 100 µM
- IC50 [5]: < 10 nM
- IC50 [6]: 19 nM
- IC50 [7]: 8.8 µM
- IC50 [8]: 27 nM
- IC50 [9]: 37 nM
- IC50 [10]: < 10 nM
